The record followed here is patent publication US20060084682A1, “Thrombopoietin mimetics” (priority 2002, published 2006).

The test has as its target T1, human Tpo-R (Homo sapiens, UniProt P40238).
T1 construct: expressed in transfected cells; host or cells: murine BaF3 cell line
T1 sequence (P40238 26-635): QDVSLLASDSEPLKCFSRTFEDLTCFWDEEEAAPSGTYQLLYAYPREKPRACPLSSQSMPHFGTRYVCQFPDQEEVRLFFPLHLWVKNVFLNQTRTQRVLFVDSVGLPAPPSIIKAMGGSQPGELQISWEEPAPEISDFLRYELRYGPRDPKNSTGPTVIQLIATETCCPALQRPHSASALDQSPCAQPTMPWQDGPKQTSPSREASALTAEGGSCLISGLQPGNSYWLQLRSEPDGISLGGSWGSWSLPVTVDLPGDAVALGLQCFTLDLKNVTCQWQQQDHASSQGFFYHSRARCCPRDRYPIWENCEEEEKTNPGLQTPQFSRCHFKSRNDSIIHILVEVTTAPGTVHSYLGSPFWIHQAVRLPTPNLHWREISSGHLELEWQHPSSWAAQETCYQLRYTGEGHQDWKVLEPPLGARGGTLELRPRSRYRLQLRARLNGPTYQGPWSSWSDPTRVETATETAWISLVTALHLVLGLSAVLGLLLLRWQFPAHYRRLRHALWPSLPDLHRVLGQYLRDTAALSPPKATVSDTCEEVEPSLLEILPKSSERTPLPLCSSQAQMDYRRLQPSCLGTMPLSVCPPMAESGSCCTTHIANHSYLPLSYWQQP
In words: in vitro proliferation assay using the murine BaF3 cell line transfected with human Tpo-R. In kind it is cell-based. As to conditions: at a concentration of 2 uM. On the procedure:
Compounds of the present invention were tested for potency as mimetics of TPO in an in vitro proliferation assay using the murine BaF3 cell line transfected with human Tpo-R. Survival and growth is dependent on the presence of TPO.

For the compound `O=C1NC(=S)SC1=Cc1ccc2[nH]c(-c3cccc(-c4ccc(Cl)c(Cl)c4)n3)nc2c1` [Example 1, 5-{2-[6-(3,4-dichloro-phenyl)-pyridin-2-yl]-1H-benzoimidazol-5-ylmethylene}-2-thioxo-thiozolidin-4-one], the “activation, % of control (control is the maximal response to TPO), proliferation of BaF3 cells” value is “about 20 % of control”.
